Experimental data: the supplement of paper PMC10307832

Tests used:
Assay in all cases: relative viability (nuclei count vs DMSO), 5 days (fraction); higher = more cells survive
SGI-1776 + Decitabine = compound: CN1CCC(CNc2ccc3ncc(-c4cccc(OC(F)(F)F)c4)n3n2)CC1 [SGI-1776] + Nc1ncn([C@H]2C[C@H](O)[C@@H](CO)O2)c(=O)n1 [Decitabine] (partner 2 µM)
Procedure, shortened: (§1)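 A single step with final 0.05% Triton X-100, 1% formaldehyde and 1 ug/ml Hoechst fixed the cells and stained nuclei 5 days after treatment. Lung cancer cell lines in 1536-well plates had been treated by pin tool the day after seeding with one drug alone or a fixed anchor-drug dose plus five library-drug doses (not always all listed) in √10 steps, and nuclei were counted on 4× images. Relative viability is the ratio of nuclei in treated wells to nuclei in vehicle wells, taken as the median of duplicate plates.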

Entinostat + Luminespib = compound: Nc1ccccc1NC(=O)c1ccc(CNC(=O)OCc2cccnc2)cc1 [Entinostat] + CCNC(=O)c1noc(-c2cc(C(C)C)c(O)cc2O)c1-c1ccc(CN2CCOCC2)cc1 [Luminespib] (partner 0.01 µM)
Procedure, shortened: as §1

[1] = compound: C1COCCN1C2=NC(=NC3=C2OC4=C3C=CC=N4)C5=CC(=CC=C5)NC(=O)C6=CN=C(C=C6)N + C[C@@H](Oc1cc(-c2cnn(C3CCNCC3)c2)cnc1N)c1c(Cl)ccc(F)c1Cl [Crizotinib] (partner 1 µM)
Procedure, shortened: as §1

[2] = compound: C1COCCN1C2=NC(=NC3=C2OC4=C3C=CC=N4)C5=CC(=CC=C5)NC(=O)C6=CN=C(C=C6)N + CC(C)C[C@H](NC(=O)[C@H](Cc1ccccc1)NC(=O)c1cnccn1)B(O)O [Bortezomib] (partner 0.002 µM)
Procedure, shortened: as §1

Row | Cell Line | relative viability (SGI-1776 + Decitabine; first compound 0.08 µM) | relative viability (SGI-1776 + Decitabine; first compound 0.8 µM) | relative viability (SGI-1776 + Decitabine; first compound 2.53 µM) | relative viability (SGI-1776 + Decitabine; first compound 8 µM) | relative viability (Entinostat + Luminespib; first compound 0.02 µM) | relative viability (Entinostat + Luminespib; first compound 0.06325 µM) | relative viability (Entinostat + Luminespib; first compound 0.2 µM) | relative viability (Entinostat + Luminespib; first compound 0.6325 µM) | relative viability (Entinostat + Luminespib; first compound 2 µM) | relative viability ([1]; first compound 0.02 µM) | relative viability ([1]; first compound 0.06325 µM) | relative viability ([1]; first compound 0.2 µM) | relative viability ([1]; first compound 0.6325 µM) | relative viability ([1]; first compound 2 µM) | relative viability ([2]; first compound 0.02 µM) | relative viability ([2]; first compound 0.06325 µM) | relative viability ([2]; first compound 0.2 µM) | relative viability ([2]; first compound 0.6325 µM) | relative viability ([2]; first compound 2 µM)
1 | NCI-H2170 | 0.478 | 0.441 | 0.393 | 0.475 | 0.778 | 0.654 | 0.643 | 0.47 | 0.329 | 1.31 | 1.37 | 1.25 | 1.12 | 0.668 | – | – | – | – | –
2 | HCC-366 | 0.335 | 0.382 | 0.373 | 0.316 | – | – | – | – | – | 0.594 | 0.808 | 0.575 | 0.629 | 0.327 | 1.43 | 1.23 | 1.09 | 1.11 | 0.525
3 | NCI-H2405 | 0.715 | 0.683 | 0.716 | 0.64 | 0.789 | 0.767 | 0.944 | 0.808 | 0.597 | 0.885 | 0.864 | 0.848 | 0.821 | 0.659 | 0.995 | 1.02 | 0.973 | 0.947 | 0.902
4 | COR-L 105 | 0.75 | 0.705 | 0.737 | 0.544 | 0.803 | 0.749 | 0.72 | 0.561 | 0.345 | 0.792 | 0.722 | 0.567 | 0.752 | 0.481 | 0.655 | 0.872 | 0.657 | 0.66 | 0.474
5 | 201T | 0.847 | 0.894 | 0.886 | 0.827 | 1.03 | 1.04 | 0.995 | 0.925 | 0.747 | 1.02 | 1.05 | 1.03 | 1.01 | 0.736 | 0.994 | 1.1 | 1.02 | 1.11 | 0.97
6 | NCI-H2228 | – | – | – | – | 0.187 | 0.132 | 0.135 | 0.184 | 0.102 | 0.489 | 0.536 | 0.364 | 0.397 | 0.291 | 1.25 | 1.1 | 0.975 | 0.84 | 0.488
7 | LCLC-103H | 0.738 | 0.656 | 0.762 | 0.69 | 0.979 | 0.967 | 0.909 | 0.715 | 0.288 | 1.03 | 1.15 | 1.09 | 0.957 | 0.974 | 0.969 | 1.24 | 1 | 0.978 | 0.722
8 | NCI-H2087 | 0.331 | 0.26 | 0.278 | 0.215 | 0.157 | 0.125 | 0.18 | 0.127 | 0.143 | 0.979 | 0.936 | 0.925 | 0.892 | 0.531 | 0.802 | 0.889 | 0.854 | 0.862 | 0.361
9 | NCI-H358 | 0.223 | 0.245 | 0.191 | 0.133 | 0.48 | 0.484 | 0.407 | 0.238 | 0.159 | 0.64 | 0.586 | 0.455 | 0.559 | 0.38 | – | – | – | – | –
10 | H3255 | 0.609 | 0.582 | 0.654 | 0.487 | 1.02 | 0.954 | 0.652 | 0.613 | 0.321 | 0.729 | 0.805 | 0.758 | 0.844 | 0.586 | 0.622 | 0.718 | 0.687 | 0.805 | 0.611
11 | NCI-H23 | 0.326 | 0.323 | 0.35 | 0.305 | 0.187 | 0.21 | 0.229 | 0.199 | 0.18 | 0.56 | 0.487 | 0.38 | 0.511 | 0.344 | 1.15 | 1.44 | 1.15 | 0.899 | 0.446
12 | CAL-12T | – | – | – | – | 0.502 | 0.402 | 0.459 | 0.461 | 0.364 | 0.843 | 0.634 | 0.688 | 0.559 | 0.507 | 0.935 | 0.98 | 0.861 | 0.871 | 0.84
13 | A-427 | 0.601 | 0.587 | 0.539 | 0.521 | 1.01 | 1.03 | 0.83 | 0.651 | 0.582 | 0.895 | 0.881 | 0.738 | 0.809 | 0.406 | 0.981 | 1.02 | 0.945 | 0.91 | 0.652
14 | HARA | 0.574 | 0.72 | 0.529 | 0.448 | 0.534 | 0.732 | 0.752 | 0.584 | 0.201 | 1.01 | 1.23 | 1.06 | 0.978 | 0.662 | 1.14 | 1.35 | 1.24 | 1 | 0.875
15 | NCI-H1793 | 0.49 | 0.512 | 0.516 | 0.509 | 0.224 | 0.157 | 0.177 | 0.171 | 0.161 | – | – | – | – | – | – | – | – | – | –
16 | NCI-H1623 | – | – | – | – | 0.632 | 0.554 | 0.443 | 0.472 | 0.279 | – | – | – | – | – | – | – | – | – | –
17 | NCI-H2023 | 0.224 | 0.207 | 0.228 | 0.182 | 0.648 | 0.528 | 0.313 | 0.111 | 0.0763 | 0.669 | 0.711 | 0.49 | 0.56 | 0.257 | 0.995 | 1.13 | 0.914 | 0.75 | 0.48
18 | ABC-1 | 1.08 | 1.09 | 0.909 | 0.954 | 0.661 | 0.49 | 0.609 | 0.555 | 0.358 | 1.02 | 1.29 | 0.93 | 1.33 | 0.666 | 0.311 | 0.315 | 0.288 | 0.298 | 0.302
19 | LC-2-ad | 0.806 | 0.811 | 0.737 | 0.779 | 1.04 | 0.936 | 0.816 | 0.65 | 0.298 | 0.486 | 0.494 | 0.411 | 0.5 | 0.387 | 1.09 | 1.05 | 0.998 | 1.03 | 0.898
